Measured values reported in the NIST ThermoML archive (doi:10.1016/j.jct.2010.04.013).
± gives the expanded uncertainty stated by the source.

Assay: mn = molality of the nth substance listed, in mol/kg
Details: 101 kPa, Liquid; for mass density: Vibrating tube method; for speed of sound: Pulse-echo method

[Ca+2].[O-][Cl+3]([O-])([O-])[O-].[O-][Cl+3]([O-])([O-])[O-] [calcium diperchlorate] + CO
Details	mass density, 283.15 K [kg/m3]	mass density, 288.15 K [kg/m3]	mass density, 293.15 K [kg/m3]	mass density, 298.15 K [kg/m3]	mass density, 303.15 K [kg/m3]	mass density, 308.15 K [kg/m3]	mass density, 313.15 K [kg/m3]	speed of sound, 298.15 K [m/s]
m1 = 0.04342	808.441 ± 0.23	803.768 ± 0.23	799.077 ± 0.23	794.369 ± 0.23	789.647 ± 0.23	784.898 ± 0.23	780.124 ± 0.23	1107.2 ± 1.2
m1 = 0.05807	811.094 ± 0.23	806.419 ± 0.23	801.722 ± 0.23	797.014 ± 0.23	792.292 ± 0.23	787.544 ± 0.23	782.768 ± 0.23	–
m1 = 0.07009	813.264 ± 0.23	808.591 ± 0.23	803.899 ± 0.23	799.189 ± 0.23	794.463 ± 0.23	789.714 ± 0.23	784.937 ± 0.23	1110.9 ± 1.2
m1 = 0.08408	815.804 ± 0.23	811.129 ± 0.23	806.432 ± 0.23	801.724 ± 0.23	796.994 ± 0.23	792.241 ± 0.23	787.454 ± 0.23	1112.6 ± 1.2
m1 = 0.09795	818.319 ± 0.23	813.643 ± 0.23	808.941 ± 0.23	804.234 ± 0.23	799.508 ± 0.23	794.756 ± 0.23	789.975 ± 0.23	1114.4 ± 1.2
m1 = 0.1113	820.755 ± 0.23	816.078 ± 0.23	811.379 ± 0.23	806.668 ± 0.23	801.938 ± 0.23	797.181 ± 0.23	792.393 ± 0.23	1116.1 ± 1.2
m1 = 0.1396	825.906 ± 0.23	821.224 ± 0.23	816.525 ± 0.23	811.81 ± 0.23	807.078 ± 0.23	802.323 ± 0.23	797.541 ± 0.23	1119.6 ± 1.2
m1 = 0.1663	830.829 ± 0.23	826.145 ± 0.23	821.443 ± 0.23	816.722 ± 0.23	811.986 ± 0.23	807.224 ± 0.23	802.43 ± 0.23	1123 ± 1.2
m1 = 0.1921	835.646 ± 0.23	830.963 ± 0.23	826.254 ± 0.23	821.535 ± 0.23	816.796 ± 0.23	812.035 ± 0.23	807.248 ± 0.23	1126.7 ± 1.2
m1 = 0.2177	840.443 ± 0.23	835.754 ± 0.23	831.044 ± 0.23	826.321 ± 0.23	821.577 ± 0.23	816.812 ± 0.23	812.023 ± 0.23	1129.5 ± 1.2
m1 = 0.2427	845.09 ± 0.23	840.401 ± 0.23	835.687 ± 0.23	830.964 ± 0.23	826.212 ± 0.23	821.445 ± 0.23	816.651 ± 0.23	1132.9 ± 1.2
m1 = 0.269	850.052 ± 0.23	845.358 ± 0.23	840.641 ± 0.23	835.911 ± 0.23	831.162 ± 0.23	826.391 ± 0.23	821.596 ± 0.23	1136.3 ± 1.2

CO [methanol] + [O-][Cl+3]([O-])([O-])[O-].[O-][Cl+3]([O-])([O-])[O-].[Sr+2]
m2 = 0
Details	mass density [kg/m3]
283.15 K	800.547 ± 0.26
288.15 K	795.856 ± 0.26
293.15 K	791.16 ± 0.26
298.15 K	786.447 ± 0.26
303.15 K	781.721 ± 0.26
308.15 K	776.973 ± 0.26
313.15 K	772.194 ± 0.26

[O-][Cl+3]([O-])([O-])[O-].[O-][Cl+3]([O-])([O-])[O-].[Sr+2] [strontium perchlorate] + C[S+](C)[O-]
Details	mass density, 293.15 K [kg/m3]	mass density, 298.15 K [kg/m3]	mass density, 303.15 K [kg/m3]	mass density, 313.15 K [kg/m3]	mass density, 323.15 K [kg/m3]	mass density, 333.15 K [kg/m3]	speed of sound, 298.15 K [m/s]
m1 = 0.02541	1105.84 ± 0.27	1100.82 ± 0.27	1095.81 ± 0.27	1085.8 ± 0.27	1075.79 ± 0.27	1065.77 ± 0.27	–
m1 = 0.03174	1107.23 ± 0.27	1102.22 ± 0.27	1097.22 ± 0.27	1087.21 ± 0.27	1077.21 ± 0.27	1067.2 ± 0.27	1485.7 ± 1.3
m1 = 0.04183	1109.48 ± 0.28	1104.48 ± 0.28	1099.47 ± 0.28	1089.48 ± 0.27	1079.49 ± 0.27	1069.48 ± 0.27	1486.1 ± 1.3
m1 = 0.05362	1112.12 ± 0.28	1107.12 ± 0.28	1102.12 ± 0.28	1092.14 ± 0.28	1082.16 ± 0.27	1072.17 ± 0.27	1486.7 ± 1.3
m1 = 0.06535	1114.75 ± 0.28	1109.75 ± 0.28	1104.76 ± 0.28	1094.79 ± 0.28	1084.82 ± 0.28	1074.85 ± 0.28	1487.3 ± 1.3
m1 = 0.08369	1118.88 ± 0.28	1113.89 ± 0.28	1108.92 ± 0.28	1098.96 ± 0.28	1089.01 ± 0.28	1079.07 ± 0.28	1488.2 ± 1.3
m1 = 0.1061	1123.96 ± 0.29	1118.98 ± 0.29	1114.01 ± 0.28	1104.08 ± 0.28	1094.14 ± 0.28	1084.22 ± 0.28	1489.3 ± 1.3
m1 = 0.1303	1129.53 ± 0.29	1124.56 ± 0.29	1119.6 ± 0.29	1109.69 ± 0.29	1099.79 ± 0.29	1089.89 ± 0.28	1490.4 ± 1.3
m1 = 0.1512	1134.32 ± 0.29	1129.36 ± 0.29	1124.42 ± 0.29	1114.52 ± 0.29	1104.65 ± 0.29	1094.78 ± 0.29	1491.5 ± 1.3
m1 = 0.1771	1140.37 ± 0.3	1135.43 ± 0.3	1130.49 ± 0.3	1120.62 ± 0.3	1110.77 ± 0.29	1100.92 ± 0.29	1492.6 ± 1.4
m1 = 0.1981	1145.33 ± 0.3	1140.39 ± 0.3	1135.46 ± 0.3	1125.62 ± 0.3	1115.78 ± 0.3	1105.96 ± 0.3	1493.7 ± 1.4

[Mg+2].[O-][Cl+3]([O-])([O-])[O-].[O-][Cl+3]([O-])([O-])[O-] [magnesium perchlorate] + C[S+](C)[O-]
Details	mass density, 293.15 K [kg/m3]	mass density, 298.15 K [kg/m3]	mass density, 303.15 K [kg/m3]	mass density, 313.15 K [kg/m3]	mass density, 323.15 K [kg/m3]	mass density, 333.15 K [kg/m3]	speed of sound, 298.15 K [m/s]
m1 = 0.02171	1103.82 ± 0.23	1098.81 ± 0.23	1093.8 ± 0.23	1083.79 ± 0.23	1073.79 ± 0.23	1063.78 ± 0.23	–
m1 = 0.03119	1105.4 ± 0.23	1100.4 ± 0.23	1095.39 ± 0.23	1085.4 ± 0.23	1075.41 ± 0.23	1065.42 ± 0.23	1486.8 ± 1.3
m1 = 0.04163	1107.14 ± 0.23	1102.15 ± 0.23	1097.16 ± 0.23	1087.18 ± 0.23	1077.2 ± 0.23	1067.23 ± 0.23	1487.7 ± 1.3
m1 = 0.05295	1109.04 ± 0.23	1104.04 ± 0.23	1099.06 ± 0.23	1089.1 ± 0.23	1079.15 ± 0.23	1069.19 ± 0.23	1488.7 ± 1.3
m1 = 0.06473	1111.01 ± 0.23	1106.03 ± 0.23	1101.06 ± 0.23	1091.11 ± 0.23	1081.18 ± 0.23	1071.25 ± 0.23	1489.7 ± 1.3
m1 = 0.08226	1113.97 ± 0.24	1109 ± 0.24	1104.04 ± 0.23	1094.12 ± 0.23	1084.21 ± 0.23	1074.31 ± 0.23	1491.1 ± 1.3
m1 = 0.1041	1117.67 ± 0.24	1112.71 ± 0.24	1107.76 ± 0.24	1097.88 ± 0.24	1088 ± 0.23	1078.12 ± 0.23	1493 ± 1.3
m1 = 0.1277	1121.69 ± 0.24	1116.74 ± 0.24	1111.81 ± 0.24	1101.96 ± 0.24	1092.12 ± 0.24	1082.29 ± 0.24	1494.8 ± 1.3
m1 = 0.1481	1125.19 ± 0.24	1120.27 ± 0.24	1115.34 ± 0.24	1105.52 ± 0.24	1095.7 ± 0.24	1085.9 ± 0.24	1496.7 ± 1.3
m1 = 0.1734	1129.53 ± 0.25	1124.62 ± 0.25	1119.72 ± 0.24	1109.94 ± 0.24	1100.17 ± 0.24	1090.39 ± 0.24	1498.8 ± 1.3
m1 = 0.1952	1133.31 ± 0.25	1128.4 ± 0.25	1123.52 ± 0.25	1113.77 ± 0.25	1104.03 ± 0.24	1094.3 ± 0.24	1500.8 ± 1.3

CO [methanol] + [Ca+2].[O-][Cl+3]([O-])([O-])[O-].[O-][Cl+3]([O-])([O-])[O-]
m2 = 0
Details	mass density [kg/m3]
283.15 K	800.54 ± 0.23
288.15 K	795.862 ± 0.23
293.15 K	791.168 ± 0.23
298.15 K	786.458 ± 0.23
303.15 K	781.732 ± 0.23
308.15 K	776.98 ± 0.24
313.15 K	772.203 ± 0.24

C[S+](C)[O-] [dimethyl sulfoxide] + [O-][Cl+3]([O-])([O-])[O-].[O-][Cl+3]([O-])([O-])[O-].[Sr+2]
m2 = 0
Details	mass density [kg/m3]
293.15 K	1100.22 ± 0.27
298.15 K	1095.18 ± 0.27
303.15 K	1090.17 ± 0.27
313.15 K	1080.12 ± 0.27
323.15 K	1070.08 ± 0.27
333.15 K	1060.03 ± 0.27
